Where a name gives a salt, the structure may show the parent alone.
What was measured:
[1] = target: T1, α1A adrenoceptor (Rattus norvegicus, UniProt P43140); experiment: Binding to α1A adrenoceptor, [3H] prazosin, rat submaxillary gland crude membrane preparation; conditions: 0.5 nM [3H] prazosin, 25° C., 30 minutes
T1 construct: a 43,000×g precipitation fraction was prepared from a rat submaxillary gland, and this was used as a crude membrane preparation; from tissue; host or cells: submaxillary gland of Sprague-Dawley male rat, crude membrane preparation
T1 sequence (P43140 1-466): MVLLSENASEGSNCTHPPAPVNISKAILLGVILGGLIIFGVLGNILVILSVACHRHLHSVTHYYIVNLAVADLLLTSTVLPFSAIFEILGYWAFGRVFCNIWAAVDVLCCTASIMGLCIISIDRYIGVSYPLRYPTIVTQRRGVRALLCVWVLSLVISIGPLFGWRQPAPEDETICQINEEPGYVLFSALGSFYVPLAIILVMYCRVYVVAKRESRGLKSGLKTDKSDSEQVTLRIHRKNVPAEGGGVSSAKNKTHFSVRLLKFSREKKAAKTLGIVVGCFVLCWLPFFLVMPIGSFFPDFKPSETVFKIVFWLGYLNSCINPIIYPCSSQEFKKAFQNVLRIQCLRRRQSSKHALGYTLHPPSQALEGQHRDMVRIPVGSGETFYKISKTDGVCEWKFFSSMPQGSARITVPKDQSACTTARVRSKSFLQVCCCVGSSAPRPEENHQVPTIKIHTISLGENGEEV
Protocol: All experiments were performed at temperatures between 0° C. and 4° C. As an α1A adrenoceptor preparation, a 43,000×g precipitation fraction was prepared from a rat submaxillary gland, and this was used as a crude membrane preparation in the experiment.
A Sprague-Dawley male rat was exsanguinated under ether anesthesia, and the submaxillary gland was isolated, was weighed and was cut to pieces with scissors. The cut gland was put into a Potter-Elvehjem type Teflon homogenizer, and was homogenized with 5 times by volume (5 mL per 1 g of the wet weight of the submaxillary gland) of a 50 mM Tris-HCl buffer (pH=7.4) containing 5 mM EDTA, 0.2 mM DTT, and 0.1 mM PMSF. The resulting homogenate was allowed to pass through a nylon mesh and was centrifuged at 800×g for 10 minutes, and the resulting supernatant was centrifuged at 43,000×g for 15 minutes. The precipitate was suspended in a 50 mM Tris-HCl buffer (pH=7.4) (Buffer A) containing 10 mM MgCl2, 0.2 mM DTT, and 0.1 mM PMSF and was then centrifuged at 43,000×g for 15 minutes. The resulting precipitate was suspended in Buffer A to a protein concentration of about 10 mg/mL, and the suspension was used as the crude membrane preparation.
(§1) Each of the crude membrane preparations was dispensed and was stored at −80° C. and was subjected to the experiment on use. The protein concentration was determined by Lowry method using bovine serum albumin as a standard.
(§2) Buffer A (400 μL) containing 0.5 nM [3H] prazosin and 200 μg crude membrane preparation was used as a standard reaction solution. The receptor preparation and [3H] prazosin were incubated at 25° C. for 30 minutes, and 2 mL of cold Buffer A was added to terminate the reaction. […] The same experimental procedure was performed in the presence of 10 μM phentolamine to thereby determine a nonspecific binding activity. A specific binding activity was calculated by subtracting the nonspecific binding activity from the total binding activity.
(§3) A solution ofa test drug was prepared by dissolving the test drug to 10 mM in distilled water, ethanol, or DMSO, and serially diluting the solution with distilled water.
(§4) Kd values and Bmax values were determined using Scatchard plots. Dissociation constant Ki (riM) of each compound was determined according to the following equation.
(§5) Ki=IC50/[1+(radioactive ligand concentration/Kd)]

[2] = target: T2, α1B adrenoceptor (Rattus norvegicus, UniProt P15823); experiment: Binding to α1B adrenoceptor, [3H] prazosin, rat liver crude membrane preparation; conditions: 0.5 nM [3H] prazosin, 25° C., 30 minutes
T2 construct: a 100,000×g precipitation fraction was prepared from a rat liver and this was used as a crude membrane preparation; from tissue; host or cells: liver of Sprague-Dawley male rat, crude membrane preparation
T2 sequence (P15823 1-515): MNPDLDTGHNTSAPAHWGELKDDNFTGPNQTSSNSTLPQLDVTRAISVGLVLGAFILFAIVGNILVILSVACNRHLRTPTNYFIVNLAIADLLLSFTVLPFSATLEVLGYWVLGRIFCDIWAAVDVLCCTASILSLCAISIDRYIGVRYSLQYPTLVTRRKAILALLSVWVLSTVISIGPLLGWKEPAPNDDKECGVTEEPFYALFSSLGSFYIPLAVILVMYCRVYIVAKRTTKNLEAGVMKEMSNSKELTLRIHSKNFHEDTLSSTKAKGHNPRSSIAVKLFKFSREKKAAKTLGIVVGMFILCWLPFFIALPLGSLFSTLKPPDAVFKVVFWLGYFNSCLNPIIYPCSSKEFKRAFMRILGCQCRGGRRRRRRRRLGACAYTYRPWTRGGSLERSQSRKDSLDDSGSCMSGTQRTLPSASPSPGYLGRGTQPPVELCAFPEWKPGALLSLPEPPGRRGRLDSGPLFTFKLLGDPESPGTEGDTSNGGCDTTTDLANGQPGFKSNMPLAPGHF
Protocol: As an α1B adrenoceptor preparation, a 100,000×g precipitation fraction was prepared from a rat liver and this was used as a crude membrane preparation in the experiment.
A Sprague-Dawley male rat was exsanguinated under ether anesthesia, and the liver was isolated, was weighed and was cut into pieces with scissors. The cut liver was put into a Potter-Elvehjem type Teflon homogenizer, and was homogenized with 9 times by volume (9 mL per 1 g of the wet weight of the liver) of a 50 mM Tris-HCl buffer (pH 7.4) containing 0.25 M sucrose, 10 mM MgCl2, 1 mM EDTA, 0.2 mM DTT, and 0.1 mM PMSF. The homogenate was centrifuged at 800×g for 10 minutes, and the resulting supernatant was centrifuged at 100,000×g for 10 minutes, and the supernatant was then further centrifuged at 100,000×g for 60 minutes. The precipitate obtained by centrifugation was suspended in a 50 mM Tris-HCl buffer (pH=7.4) (Buffer A) containing 10 mM MgCl2, 0.2 mM DTT, and 0.1 mM PMSF to a protein concentration of about 10 mg/mL, and the suspension was used as the crude membrane preparation.
as §1, §2, §3, §4, §5

[3] = tested on: vasopressor response induced by phenylephrine (an α1 adrenoceptor agonist); experiment: Inhibitory activity against vasopressor response induced by phenylephrine in rats under anesthesia; type: in vivo, rat; conditions: continuous i.v. infusion, 15 minutes after administration, phenylephrine 3 μg/kg, mean ± standard error
Protocol: The inhibitory activity of the α1B adrenoceptor antagonist according to Example 23 against vasopressor response induced by phenylephrine (an α1 adrenoceptor agonist) in rats under anesthesia was studied. […] The compound was dissolved in physiological saline, and was infused into the femoral vein at a rate of 20 μl/kg/min. Phenylephrine was dissolved in physiological saline and was bolus injected at a dose of 0.2 ml/kg (3 μg/kg). The inhibition rate was calculated according to the following equation.
Inhibition rate (7)=[1—(pressure increase induced by phenylephrine 15 minutes after administration of the example compound)/(pressure increase induced by phenylephrine before administration of the example compound)]×100

SMILES	Ki [1] [µM]	Ki [2] [µM]	Inhibition rate ([3]; dose 0.1 mg/kg/min) [%]	Inhibition rate ([3]; dose 0.3 mg/kg/min) [%]	Inhibition rate ([3]; dose 1 mg/kg/min) [%]	Inhibition rate ([3]; dose 3 mg/kg/min) [%]
c1ccc2c(c1)CN(CCCCCN1CCC(c3c[nH]c4ccccc34)CC1)C2 [Example 16, 3-(1-(5-Isoindolin-2-ylpentyl)-4-piperidyl)indole]	0.082	0.0016	–	–	–	–
c1ccc2c(c1)CN(CCCN1CCC(c3c[nH]c4ccccc34)CC1)C2 [Example 14, 3-(1-(3-Isoindolin-2-ylpropyl)-4-piperidyl)indole Hydrochloride]	0.05	0.0036	–	–	–	–
Fc1ccc2c(C3CCN(CCCN4Cc5ccccc5C4)CC3)c[nH]c2c1 [Example 23, 6-Fluoro-3-(1-(3-Isoindolin-2-ylpropyl)-4-piperidyl)indole Hydrochloride]	0.018	0.00079	24 ± 5	47 ± 5	72 ± 5	86 ± 2

The remaining compounds from weak to strong by Ki [1], led by results:

Ki [1] [µM]	Ki [2] [µM]	SMILES	Inhibition rate ([3]; dose 0.1 mg/kg/min) [%]	Inhibition rate ([3]; dose 0.3 mg/kg/min) [%]	Inhibition rate ([3]; dose 1 mg/kg/min) [%]	Inhibition rate ([3]; dose 3 mg/kg/min) [%]
0.87	0.86	c1ccc(C2CCN(CCCN3CCC(c4ccccc4)CC3)CC2)cc1 [Reference Example 21, 4-Phenyl-1-(3-(4-phenylpiperidyl)propyl)piperidine Hydrochloride, reference compound]	–	–	–	–
0.03	0.0014	c1ccc2c(c1)CN(CCCCN1CCC(c3c[nH]c4ccccc34)CC1)C2 [Example 15, 3-(1-(4-Isoindolin-2-ylbutyl)-4-piperidyl)indole Hydrochloride]	–	–	–	–
0.021	0.00063	Fc1ccc2c(C3CCN(CCCN4CCCCC4)CC3)c[nH]c2c1 [Example 21, 6-Fluoro-3-(1i-(3-Piperidylpropyl)-4-piperidyl)indole Hydrochloride]	–	–	–	–
